The source of these data is paper PMC7466159, “Anti-Metastasis Fascin Inhibitors Decrease the Growth of Specific Subtypes of Cancers” (Cancers, 2020).

The test system of test [1] is MDA-MB-468 triple-negative breast cancer cells. Description: Cell growth assay, MDA-MB-468. The settings on record: MDA-MB-468 cells in culture, 10% serum. In kind it is cell-based.
For another test, the system named is MDA-MB-468 tumor cells. Description: MDA-MB-468 breast cancer model in NSG mice (tumor growth, overall survival). In kind it is in vivo. The settings on record: treatment from Day 14, compared with the control group. As for the experimental part: MDA-MB-468 cells and HCC38 cells grew in the presence of EGF with or without NP-G2-044. […] Finally, we used the animal model to investigate whether the primary tumor growth of MDA-MB-468 cells was sensitive to fascin inhibitors. MDA-MB-468 tumor cells were implanted into the mammary gland of NSG mice, and these mice were randomly divided into four groups. One group of mice was used as control (Figure 6I). The second group of mice was treated with the fascin inhibitor NP-G2-044 (Figure 6I). The third group was treated with the EGFR inhibitor gefitnib (Figure 6I), and the fourth group was treated with the combination of NP-G2-044 + gefitinib (Figure 6I). […] We dissected the primary tumor tissues 55 days after the tumor implantation from some mice. […] Furthermore, the overall survival of the mice was analyzed (Figure 6K).
For the breast cancer model, MDA-MB-468 cells (5 × 10^6) suspended in PBS-matrigel (v/v, 1:1) were injected subcutaneously into the abdominal mammary gland area of female NSG mice on Day 0 as previously described. Starting on Day 14, NP-G2-044 was given once a day for 5 days every week by gavage at 300 mg kg^−1 per mouse until their death. Starting on Day 14, gefitinib was given twice weekly by gavage at 150 mg kg^−1 per mouse until their death. The control solvent was given once a day for 5 days every week by gavage according to their body weight until their death. […] The primary tumor volume was calculated as length × width^2 ×π/6.

The test system of test [2] is BT-20 triple-negative breast cancer cells. Description: Cell growth assay, BT-20. In kind it is cell-based. The settings on record: BT-20 cells in culture, 10% serum.
Test [3] deals with HCC38 triple-negative breast cancer cells. Description: Cell growth assay, HCC38. In kind it is cell-based. The settings on record: HCC38 cells in culture, 10% serum.

For the molecule `COc1cc2ncnc(Nc3ccc(F)c(Cl)c3)c2cc1OCCCN1CCOCC1` [gefitinib, reference compound], the growth sensitivity result in test [1], in test [2] and in test [3] was “sensitive” in each case. For the same molecule, in the test with MDA-MB-468 tumor cells, the “growth of primary tumors” value is “reduced the growth of primary tumors to the same degree”. Also, in the test with MDA-MB-468 tumor cells, the “increase of median overall survival” value is on record as ~ 50%.
